Where two headings read alike, the source gives them in different places.
Tests used:
Puccinia triticina = experiment: Fungicidal activity: wheat brown rust (PUCCRT), disease control on wheat seedlings; format: in vivo; conditions: for pest or weed control at 100 ppm: high volume application; for pest or weed control at 121.5 g/ha: low volume application, 121.5 g/H
Experimental: Technical grades of materials were dissolved in acetone, which were then mixed with nine volumes of water (H2O) containing 110 ppm Triton X-100. The fungicide solutions were applied onto wheat seedlings using an automated booth sprayer to run-off. All sprayed plants were allowed to air dry prior to further handling. All fungicides were evaluated using the aforementioned method for their activity vs. all target diseases, unless stated otherwise. Wheat leaf blotch and brown rust activity were also evaluated using track spray applications, in which case the fungicides were formulated as EC formulations, containing 0.1% Trycol 5941 in the spray solutions. Wheat plants (variety Yuma) were grown from seed in a greenhouse in 50% mineral soil/50% soil-less Metro mix until the first leaf was fully emerged, with 7-10 seedlings per pot. These plants were inoculated with an aqueous spore suspension of Puccinia triticina either prior to or after fungicide treatments. After inoculation the plants were kept in a dark dew room at 22° C. with 100% relative humidity overnight to permit spores to germinate and infect the leaf. The plants were then transferred to a greenhouse set at 24° C. for disease to develop. Fungicide formulation, application and disease assessment followed the procedures as described in the Example A. Results of the evaluations are shown below in Table 4.

Zymoseptoria tritici = experiment: Fungicidal activity: leaf blotch of wheat (SEPTTR), disease control on wheat seedlings; format: in vivo; conditions: for pest or weed control at 100 ppm: high volume application; for pest or weed control at 121.5 g/ha: low volume application, 121.5 g/H
Experimental: Technical grades of materials were dissolved in acetone, which were then mixed with nine volumes of water (H2O) containing 110 ppm Triton X-100. The fungicide solutions were applied onto wheat seedlings using an automated booth sprayer to run-off. All sprayed plants were allowed to air dry prior to further handling. All fungicides were evaluated using the aforementioned method for their activity vs. all target diseases, unless stated otherwise. Wheat leaf blotch and brown rust activity were also evaluated using track spray applications, in which case the fungicides were formulated as EC formulations, containing 0.1% Trycol 5941 in the spray solutions. Wheat plants (variety Yuma) were grown from seed in a greenhouse in 50% mineral soil/50% soil-less Metro mix until the first leaf was fully emerged, with 7-10 seedlings per pot. These plants were inoculated with an aqueous spore suspension of Zymoseptoria tritici either prior to or after fungicide treatments. After inoculation the plants were kept in 100% relative humidity (one day in a dark dew chamber followed by two to three days in a lighted dew chamber at 20° C.) to permit spores to germinate and infect the leaf. The plants were then transferred to a greenhouse set at 20° C. for disease to develop. When disease symptoms were fully expressed on the 1st leaves of untreated plants, infection levels were assessed on a scale of 0 to 100 percent disease severity. Percent disease control was calculated using the ratio of disease severity on treated plants relative to untreated plants.

[1] = 24 h, 1 day protectant, read-out: PUCCRT disease control, 1DP, HV activity at 100 ppm
[2] = 24 h, 1 day protectant, read-out: PUCCRT disease control, 1DP, LV activity at 121.5 g/H
[3] = 72 h, 3 day curative, read-out: PUCCRT disease control, 3DC, HV activity at 100 ppm
[4] = 72 h, 3 day curative, read-out: PUCCRT disease control, 3DC, LV activity at 121.5 g/H
[5] = 24 h, 1 day protectant, read-out: SEPTTR disease control, 1DP, HV activity at 100 ppm
[6] = 24 h, 1 day protectant, read-out: SEPTTR disease control, 1DP, LV activity at 121.5 g/H
[7] = 72 h, 3 day curative, read-out: SEPTTR disease control, 3DC, HV activity at 100 ppm
[8] = 72 h, 3 day curative, read-out: SEPTTR disease control, 3DC, LV activity at 121.5 g/H

Compound | pest or weed control at 100 ppm (Puccinia triticina; [1]) [%] | pest or weed control at 121.5 g/ha (Puccinia triticina; [2]) [%] | pest or weed control at 100 ppm (Puccinia triticina; [3]) [%] | pest or weed control at 121.5 g/ha (Puccinia triticina; [4]) [%] | pest or weed control at 100 ppm (Zymoseptoria tritici; [5]) [%] | pest or weed control at 121.5 g/ha (Zymoseptoria tritici; [6]) [%] | pest or weed control at 100 ppm (Zymoseptoria tritici; [7]) [%] | pest or weed control at 121.5 g/ha (Zymoseptoria tritici; [8]) [%]
COc1cc[n+]([O-])c(C(=O)N[C@@H](C)C(=O)O[C@@H](C)C(c2ccc(C)cc2C)c2ccc(C)cc2C)c1O [Compound 1, 2-(((S)-1-(((S)-1,1-bis(2,4-dimethylphenyl)propan-2-yl)oxy)-1-oxopropan-2-yl)carbamoyl)-3-hydroxy-4-methoxypyridine 1-oxide] | > 80 | > 80 | ≤ 80 | ≤ 80 | > 80 | > 80 | > 80 | > 80
COc1cc(C(c2ccc(C)c(OC)c2)[C@H](C)OC(=O)[C@H](C)NC(=O)c2c(O)c(OC)cc[n+]2[O-])ccc1C [Compound 18] |  | ≤ 80 |  | ≤ 80 |  | > 80 |  | > 80
COc1cc[n+]([O-])c(C(=O)N[C@@H](C)C(=O)O[C@@H](C)[C@@H](c2ccc(F)cc2)c2ccc(F)cc2C)c1O [Compound 29] | > 80 | > 80 | > 80 | ≤ 80 | > 80 | > 80 | > 80 | > 80
COc1cc[n+]([O-])c(C(=O)N[C@@H](C)C(=O)O[C@@H](C)[C@H](c2ccc(F)cc2)c2ccc(F)cc2C)c1O [Compound 38] |  | ≤ 80 |  |  |  | > 80 |  | > 80
COc1ccc(F)c(C(c2cc(OC)ccc2F)[C@H](C)OC(=O)[C@H](C)NC(=O)c2c(O)c(OC)cc[n+]2[O-])c1 [Compound 4] | > 80 |  | ≤ 80 |  | ≤ 80 |  |  | > 80
COc1cc[n+]([O-])c(C(=O)N[C@@H](C)C(=O)O[C@@H](C)C(c2ccc(Cl)c(F)c2)c2ccc(Cl)c(F)c2)c1O [Compound 6] | > 80 | ≤ 80 |  |  | > 80 | > 80 | > 80 | > 80
COc1ccc(C(c2ccc(OC)cc2)[C@H](C)OC(=O)[C@H](C)NC(=O)c2c(O)c(OC)cc[n+]2[O-])cc1 [Compound 26] | > 80 |  | > 80 |  | > 80 |  | > 80 | 
COc1ccc(F)cc1C(c1cc(F)ccc1OC)[C@H](C)OC(=O)[C@H](C)NC(=O)c1c(O)c(OC)cc[n+]1[O-] [Compound 41] |  |  |  |  |  | ≤ 80 |  | ≤ 80
COc1cc[n+]([O-])c(C(=O)N[C@@H](C)C(=O)O[C@@H](C)C(O)(c2ccc(Cl)c(F)c2)c2ccc(Cl)c(F)c2)c1O [Compound 9] |  |  |  |  | > 80 | > 80 |  | 
COc1cc[n+]([O-])c(C(=O)N[C@@H](C)C(=O)O[C@@H](C)C(c2cccc(F)c2)c2cccc(F)c2)c1O [Compound 35] |  |  |  |  |  | ≤ 80 |  | ≤ 80
COc1cc[n+]([O-])c(C(=O)N[C@@H](C)C(=O)O[C@@H](C)C(O)(c2ccc(Cl)c(Cl)c2)c2ccc(Cl)c(Cl)c2)c1O [Compound 11] |  |  |  |  | > 80 | > 80 |  | ≤ 80
COc1cc[n+]([O-])c(C(=O)N[C@@H](C)C(=O)O[C@@H](C)C(c2cccc(OC)c2OC)c2cccc(OC)c2OC)c1O [Compound 40] |  |  |  |  |  |  |  | ≤ 80
